# Source: publication PMC5021161 (Environmental and Molecular Mutagenesis, 2016)
# Where two headings read alike, the source gives them in different places.
# Legend:
# TK6 cells [1] = settings: for % MN: 2% Aroclor S9; for statistically significant % MN increase relative to controls: for at least one concentration
# [2] = test system: TGx‐28.65 biomarker genes; settings: 2015, cited from earlier work; for Dendogram TGx‐28.65 / NSC TGx‐28.65 / PCA TGx‐28.65: 1% BF/PB S9
# TK6 cells [3] = settings: 1% BF/PB S9, ref Buick et al., 2015, cited from earlier work
# ATF3 = format: cell-based, human; settings: 2% Aroclor S9, 4 hr + 3-4 hr recovery
# [4] = test system: TGx‐28.65 biomarker genes; settings: for Dendogram TGx‐28.65 / NSC TGx‐28.65 / PCA TGx‐28.65: 2% Aroclor S9, 4 hr + 3-4 hr recovery
# GADD45A = format: cell-based, human
# TK6 cells [5] = settings: 2% Aroclor S9, 4 hr + 20 hr recovery
# TK6 cells [6] = settings: for % Relative Survival: 2% Aroclor S9, 4 hr + 20 hr recovery
# CDKN1A = format: cell-based, human
# [7] = test system: ATF3, CDKN1A, and GADD45A; assay: RT‐qPCR of the three stress response genes; format: cell-based, human; settings: 2% Aroclor‐induced S9
# [8] = 1 μg/ml, 2% Aroclor S9, 4 hr + 3-4 hr recovery
# [9] = 20 μg/ml, 2% Aroclor S9, 4 hr + 3-4 hr recovery
# [10] = 280 μg/ml, 2% Aroclor S9, 4 hr + 3-4 hr recovery
# [11] = 2 μg/ml, 2% Aroclor S9, 4 hr + 3-4 hr recovery
# [12] = 1 mM, 2% Aroclor S9, 4 hr + 3-4 hr recovery
# [13] = 5 mM, 2% Aroclor S9, 4 hr + 3-4 hr recovery
# [14] = 10 mM, 2% Aroclor S9, 4 hr + 3-4 hr recovery
smiles,measurement,setting,value
O=P1(N(CCCl)CCCl)NCCCO1 (centres unmarked) [Cyclophosphamide],fold increase in % MN above vehicle + S9 control,TK6 cells [1]; human,8 fold
C[C@@H]1C[C@H]2[C@@H]3CCC4=CC(=O)C=C[C@]4(C)[C@@]3(F)[C@@H](O)C[C@]2(C)[C@@]1(O)C(=O)CO [Dexamethasone],Dendogram TGx‐28.65,"[2]; 0.63 mM, ref Buick et al.",−
same,NSC TGx‐28.65,"[2]; 0.63 mM, ref Buick et al.",−
same,PCA TGx‐28.65,"[2]; 0.63 mM, ref Buick et al.",−
same,Dendogram TGx‐28.65,"[2]; 1 mM, ref Buick et al.",−
same,NSC TGx‐28.65,"[2]; 1 mM, ref Buick et al.",−
same,PCA TGx‐28.65,"[2]; 1 mM, ref Buick et al.",−
same,% Apoptotic cells,TK6 cells [3]; 0.63 mM,5.5%
same,% Apoptotic cells,TK6 cells [3]; 1 mM,12.2%
"c1ccc2c(c1)ccc1cc3c(ccc4ccccc43)cc12 [Dibenz[a,h]anthracene]",ATF3 fold change vs vehicle control (+S9),ATF3; 1 μg/ml,1.1 fold change
same,ATF3 fold change vs vehicle control (+S9),ATF3; 20 μg/ml,1.6 fold change
same,ATF3 fold change vs vehicle control (+S9),ATF3; 280 μg/ml,2.3 fold change
same,Dendogram TGx‐28.65,[4]; 1 μg/ml,+
same,NSC TGx‐28.65,[4]; 1 μg/ml,−
same,PCA TGx‐28.65,[4]; 1 μg/ml,−
same,Dendogram TGx‐28.65,[4]; 20 μg/ml,+
same,NSC TGx‐28.65,[4]; 20 μg/ml,+
same,PCA TGx‐28.65,[4]; 20 μg/ml,+
same,Dendogram TGx‐28.65,[4]; 280 μg/ml,+
same,NSC TGx‐28.65,[4]; 280 μg/ml,+
same,PCA TGx‐28.65,[4]; 280 μg/ml,+
same,classification using TGx‐28.65,[4]; low concentrations,non‐genotoxic
same,classification by hierarchical cluster analysis (TGx‐28.65 genes),[4]; lowest concentration,genotoxic
same,classification using TGx‐28.65,[4]; mid and high concentrations,genotoxic
same,GADD45A fold change vs vehicle control (+S9),GADD45A; [8],1.2 fold change
same,GADD45A fold change vs vehicle control (+S9),GADD45A; [9],1.7 fold change
same,GADD45A fold change vs vehicle control (+S9),GADD45A; [10],2.0 fold change
same,% Apoptotic cells,TK6 cells [5]; 1 μg/ml,9.74%
same,% Apoptotic cells,TK6 cells [5]; 20 μg/ml,16.82%
same,% Apoptotic cells,TK6 cells [5]; 280 μg/ml,31.79%
same,% Relative Survival,TK6 cells [6]; 1 μg/ml,97.79%
same,% Relative Survival,TK6 cells [6]; 20 μg/ml,64.12%
same,% Relative Survival,TK6 cells [6]; 280 μg/ml,53.91%
same,CDKN1A fold change vs vehicle control (+S9),CDKN1A; [8],1.2 fold change
same,CDKN1A fold change vs vehicle control (+S9),CDKN1A; [9],2.4 fold change
same,CDKN1A fold change vs vehicle control (+S9),CDKN1A; [10],4.2 fold change
same,% MN,"TK6 cells [1]; 1 μg/ml, 4 hr + 20 hr recovery",2.16%
same,% MN,"TK6 cells [1]; 20 μg/ml, 4 hr + 20 hr recovery",3.42%
same,% MN,"TK6 cells [1]; 280 μg/ml, 4 hr + 20 hr recovery",3.80%
same,statistically significant % MN increase relative to controls,TK6 cells [1]; definitive study,over twofold
O=[N+]([O-])c1ccc2c(c1)Cc1ccccc1-2 [2‐Nitrofluorene],Dendogram TGx‐28.65,[4]; 10 μM,−
same,NSC TGx‐28.65,[4]; 10 μM,−
same,PCA TGx‐28.65,[4]; 10 μM,−
same,Dendogram TGx‐28.65,[4]; 50 μM,−
same,NSC TGx‐28.65,[4]; 50 μM,+
same,PCA TGx‐28.65,[4]; 50 μM,+
same,Dendogram TGx‐28.65,[4]; 300 μM,−
same,NSC TGx‐28.65,[4]; 300 μM,+
same,PCA TGx‐28.65,[4]; 300 μM,+
same,classification by hierarchical cluster analysis (TGx‐28.65 genes),[4]; all concentrations,non‐genotoxic
same,classification using TGx‐28.65,[4]; low concentrations,non‐genotoxic
same,classification using TGx‐28.65,[4]; mid and high concentrations,genotoxic
same,% Apoptotic cells,TK6 cells [5]; 10 μM,9.84%
same,% Apoptotic cells,TK6 cells [5]; 50 μM,12.62%
same,% Apoptotic cells,TK6 cells [5]; 300 μM,20.43%
same,% MN,"TK6 cells [1]; 10 μM, 4 hr + 20 hr recovery",1.48%
same,% MN,"TK6 cells [1]; 50 μM, 4 hr + 20 hr recovery",2.23%
same,% MN,"TK6 cells [1]; 300 μM, 4 hr + 20 hr recovery",3.13%
OC[C@H]1O[C@@](CO)(O[C@H]2O[C@H](CO)[C@@H](O)[C@H](O)[C@H]2O)[C@@H](O)[C@@H]1O [Sucrose],Dendogram TGx‐28.65,[4]; 1 mM,−
same,NSC TGx‐28.65,[4]; 1 mM,−
same,PCA TGx‐28.65,[4]; 1 mM,−
same,Dendogram TGx‐28.65,[4]; 10 mM,−
same,NSC TGx‐28.65,[4]; 10 mM,−
same,PCA TGx‐28.65,[4]; 10 mM,−
same,GADD45A fold change vs vehicle control (+S9),GADD45A,0.8 fold change
same,% Apoptotic cells,TK6 cells [5]; 1 mM,8.98%
same,% Apoptotic cells,TK6 cells [5]; 10 mM,9.75%
same,% Relative Survival,TK6 cells [6]; 1 mM,95.04%
same,% Relative Survival,TK6 cells [6]; 10 mM,90.93%
same,CDKN1A fold change vs vehicle control (+S9),CDKN1A,0.4 fold change
same,% MN,"TK6 cells [1]; 1 mM, 4 hr + 20 hr recovery",0.94%
same,% MN,"TK6 cells [1]; 10 mM, 4 hr + 20 hr recovery",0.97%
same,increase in % MN,"TK6 cells [1]; definitive study, 2% Aroclor‐induced S9",no significant increase
Nc1ccc2cc3ccccc3cc2c1 [2‐Aminoanthracene],ATF3 fold change vs vehicle control (+S9),ATF3; 2 μg/ml,2.3 fold change
same,Dendogram TGx‐28.65,[4]; 2 μg/ml,+
same,NSC TGx‐28.65,[4]; 2 μg/ml,+
same,PCA TGx‐28.65,[4]; 2 μg/ml,+
same,"probability of being genotoxic (NSC, TGx‐28.65)",[4]; all concentrations,> 0.9
same,classification using TGx‐28.65,[4]; mid and high concentrations,genotoxic
same,GADD45A fold change vs vehicle control (+S9),GADD45A; [11],1.7 fold change
same,% Apoptotic cells,TK6 cells [5]; 2 μg/ml,18.48%
same,% Relative Survival,TK6 cells [6]; 2 μg/ml,46.78%
same,% Relative Survival,"TK6 cells [6]; 2 μg/ml, listed as 2‐aminoanthracene",47%
same,CDKN1A fold change vs vehicle control (+S9),CDKN1A; [11],4.6 fold change
same,% MN,"TK6 cells [1]; 2 μg/ml, 4 hr + 20 hr recovery",1.22%
same,fold increase in % MN above vehicle + S9 control,"TK6 cells [1]; high concentration, definitive study, 4 hr + 20 hr recovery",1.8 fold
N.N.[Cl][Pt][Cl] [cisplatin],classification using TGx‐28.65,"[2]; in the presence and absence of S9, ref Buick et al.",accurately classified the genotoxicity
c1ccc2c(c1)ccc1ccccc12 [Phenanthrene],Dendogram TGx‐28.65,[4]; 8 μg/ml,−
same,NSC TGx‐28.65,[4]; 8 μg/ml,−
same,PCA TGx‐28.65,[4]; 8 μg/ml,−
same,Dendogram TGx‐28.65,[4]; 40 μg/ml,−
same,NSC TGx‐28.65,[4]; 40 μg/ml,−
same,PCA TGx‐28.65,[4]; 40 μg/ml,−
same,Dendogram TGx‐28.65,[4]; 100 μg/ml,−
same,NSC TGx‐28.65,[4]; 100 μg/ml,−
same,PCA TGx‐28.65,[4]; 100 μg/ml,−
same,% Apoptotic cells,TK6 cells [5]; 8 μg/ml,10.60%
same,% Apoptotic cells,TK6 cells [5]; 40 μg/ml,14.71%
same,% Apoptotic cells,TK6 cells [5]; 100 μg/ml,26.73%
same,% Relative Survival,TK6 cells [6]; 8 μg/ml,94.13%
same,% Relative Survival,TK6 cells [6]; 40 μg/ml,65.32%
same,% Relative Survival,TK6 cells [6]; 100 μg/ml,38.91%
same,% Relative Survival,"TK6 cells [6]; 100 μg/ml, listed as phenanthrene",~40%
same,increase in % MN,TK6 cells [1],no significant increase
CN(C)N=O [Dimethylnitrosamine],ATF3 fold change vs vehicle control (+S9),ATF3; 1 mM,0.8 fold change
same,ATF3 fold change vs vehicle control (+S9),ATF3; 5 mM,0.8 fold change
same,ATF3 fold change vs vehicle control (+S9),ATF3; 10 mM,0.8 fold change
same,Dendogram TGx‐28.65,[4]; 1 mM,−
same,NSC TGx‐28.65,[4]; 1 mM,−
same,PCA TGx‐28.65,[4]; 1 mM,−
same,Dendogram TGx‐28.65,[4]; 5 mM,+
same,NSC TGx‐28.65,[4]; 5 mM,+
same,PCA TGx‐28.65,[4]; 5 mM,+
same,Dendogram TGx‐28.65,[4]; 10 mM,+
same,NSC TGx‐28.65,[4]; 10 mM,+
same,PCA TGx‐28.65,[4]; 10 mM,+
same,hierarchical cluster analysis with TGx‐28.65,"[4]; 10% Aroclor‐induced S9, lowest concentration (1 mM)",on the same branch as non‐genotoxic agents
same,classification using TGx‐28.65,[4]; low concentrations,non‐genotoxic
same,classification using TGx‐28.65,[4]; mid and high concentrations,genotoxic
same,GADD45A fold change vs vehicle control (+S9),GADD45A; [12],1.0 fold change
same,GADD45A fold change vs vehicle control (+S9),GADD45A; [13],1.2 fold change
same,GADD45A fold change vs vehicle control (+S9),GADD45A; [14],1.5 fold change
same,% Apoptotic cells,TK6 cells [5]; 1 mM,8.47%
same,% Apoptotic cells,TK6 cells [5]; 5 mM,12.27%
same,% Apoptotic cells,TK6 cells [5]; 10 mM,30.63%
same,change in RS relative to DMSO controls,TK6 cells [6],declines
same,% Relative Survival,TK6 cells [6]; 1 mM,76.40%
same,% Relative Survival,TK6 cells [6]; 5 mM,72.92%
same,% Relative Survival,TK6 cells [6]; 10 mM,45.65%
same,induction of genes in the stress response panel,[7],did not induce any of the genes
same,CDKN1A fold change vs vehicle control (+S9),CDKN1A; [12],1.0 fold change
same,CDKN1A fold change vs vehicle control (+S9),CDKN1A; [13],1.3 fold change
same,CDKN1A fold change vs vehicle control (+S9),CDKN1A; [14],1.2 fold change
same,change in % MN relative to DMSO controls,TK6 cells [1],Significant increases
same,% MN,"TK6 cells [1]; 1 mM, 4 hr + 20 hr recovery",1.15%
same,% MN,"TK6 cells [1]; 5 mM, 4 hr + 20 hr recovery",2.29%
same,% MN,"TK6 cells [1]; 10 mM, 4 hr + 20 hr recovery",2.80%
same,statistically significant % MN increase relative to controls,TK6 cells [1]; definitive study,over twofold
CC(C)OS(C)(=O)=O [isopropyl methanesulfonate],classification using TGx‐28.65,"[2]; TK6 cells, biomarker development study, ref Li et al.",genotoxic
CC(=O)Nc1ccc(O)cc1 [Acetaminophen],concentration range in which toxic effects are observed,TK6 cells [1]; human,3000 to 10000 µM
